US12172995B2, “Substituted indole and indazole compounds” (BRISTOL-MYERS SQUIBB COMPANY, priority 2018, dated 2024)

Legend:
Type in all cases: cell-based
[1] = target: T1, human TLR7 (Homo sapiens, UniProt Q9NYK1); assay: TLR7 inhibition reporter assay (HEK-Blue SEAP); conditions: HEK-Blue cells overexpressing human TLR7, stimulated with gardiquimod 7.5 μM, 22 hour incubation
T1 construct: host or cells: HEK-Blue cells
T1 sequence (Q9NYK1 27-1049): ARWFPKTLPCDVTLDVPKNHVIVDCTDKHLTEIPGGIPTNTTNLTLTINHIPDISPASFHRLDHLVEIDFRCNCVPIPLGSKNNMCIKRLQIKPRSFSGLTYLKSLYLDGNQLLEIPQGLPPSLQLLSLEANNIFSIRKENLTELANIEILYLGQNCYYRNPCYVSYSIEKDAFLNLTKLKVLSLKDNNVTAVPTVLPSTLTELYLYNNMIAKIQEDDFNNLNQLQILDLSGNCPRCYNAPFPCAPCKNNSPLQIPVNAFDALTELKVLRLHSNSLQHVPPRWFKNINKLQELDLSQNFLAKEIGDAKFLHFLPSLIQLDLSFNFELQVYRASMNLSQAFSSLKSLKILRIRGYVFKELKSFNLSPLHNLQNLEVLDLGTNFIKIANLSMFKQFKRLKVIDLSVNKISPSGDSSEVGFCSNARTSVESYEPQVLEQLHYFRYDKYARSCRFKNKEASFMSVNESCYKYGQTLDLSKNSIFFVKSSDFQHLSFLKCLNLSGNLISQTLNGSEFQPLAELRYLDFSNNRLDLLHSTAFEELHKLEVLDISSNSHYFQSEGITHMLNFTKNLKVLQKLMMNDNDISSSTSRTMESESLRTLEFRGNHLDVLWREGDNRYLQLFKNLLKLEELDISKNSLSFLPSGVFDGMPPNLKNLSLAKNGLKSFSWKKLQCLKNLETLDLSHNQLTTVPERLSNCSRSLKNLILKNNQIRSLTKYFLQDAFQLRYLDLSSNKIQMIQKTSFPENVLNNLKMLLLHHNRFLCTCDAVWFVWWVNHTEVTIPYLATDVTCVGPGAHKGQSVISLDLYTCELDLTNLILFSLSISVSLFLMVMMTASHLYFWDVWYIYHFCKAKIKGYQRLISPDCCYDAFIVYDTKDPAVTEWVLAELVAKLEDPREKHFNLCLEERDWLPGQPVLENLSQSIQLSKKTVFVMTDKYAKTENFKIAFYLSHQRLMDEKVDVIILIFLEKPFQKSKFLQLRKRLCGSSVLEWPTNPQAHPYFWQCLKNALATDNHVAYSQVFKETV
In short: (§1)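 HEK-Blue cells overexpressing the receptor, with an NF-κB/AP-1-driven SEAP reporter, were pre-treated with compound (0.05 nM to 50 μM) for 30 min at room temperature. Stimulation used gardiquimod 7.5 μM (TLR7), R848 15.9 μM (TLR8) or ODN2006 5 nM (TLR9), followed by 22 h at 37 °C.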

[2] = target: T2, human TLR9 (Homo sapiens, UniProt Q9NR96); assay: TLR9 inhibition reporter assay (HEK-Blue SEAP); conditions: HEK-Blue cells overexpressing human TLR9, stimulated with ODN2006 5 nM, 22 hour incubation
T2 construct: host or cells: HEK-Blue cells
T2 sequence (Q9NR96 26-1032): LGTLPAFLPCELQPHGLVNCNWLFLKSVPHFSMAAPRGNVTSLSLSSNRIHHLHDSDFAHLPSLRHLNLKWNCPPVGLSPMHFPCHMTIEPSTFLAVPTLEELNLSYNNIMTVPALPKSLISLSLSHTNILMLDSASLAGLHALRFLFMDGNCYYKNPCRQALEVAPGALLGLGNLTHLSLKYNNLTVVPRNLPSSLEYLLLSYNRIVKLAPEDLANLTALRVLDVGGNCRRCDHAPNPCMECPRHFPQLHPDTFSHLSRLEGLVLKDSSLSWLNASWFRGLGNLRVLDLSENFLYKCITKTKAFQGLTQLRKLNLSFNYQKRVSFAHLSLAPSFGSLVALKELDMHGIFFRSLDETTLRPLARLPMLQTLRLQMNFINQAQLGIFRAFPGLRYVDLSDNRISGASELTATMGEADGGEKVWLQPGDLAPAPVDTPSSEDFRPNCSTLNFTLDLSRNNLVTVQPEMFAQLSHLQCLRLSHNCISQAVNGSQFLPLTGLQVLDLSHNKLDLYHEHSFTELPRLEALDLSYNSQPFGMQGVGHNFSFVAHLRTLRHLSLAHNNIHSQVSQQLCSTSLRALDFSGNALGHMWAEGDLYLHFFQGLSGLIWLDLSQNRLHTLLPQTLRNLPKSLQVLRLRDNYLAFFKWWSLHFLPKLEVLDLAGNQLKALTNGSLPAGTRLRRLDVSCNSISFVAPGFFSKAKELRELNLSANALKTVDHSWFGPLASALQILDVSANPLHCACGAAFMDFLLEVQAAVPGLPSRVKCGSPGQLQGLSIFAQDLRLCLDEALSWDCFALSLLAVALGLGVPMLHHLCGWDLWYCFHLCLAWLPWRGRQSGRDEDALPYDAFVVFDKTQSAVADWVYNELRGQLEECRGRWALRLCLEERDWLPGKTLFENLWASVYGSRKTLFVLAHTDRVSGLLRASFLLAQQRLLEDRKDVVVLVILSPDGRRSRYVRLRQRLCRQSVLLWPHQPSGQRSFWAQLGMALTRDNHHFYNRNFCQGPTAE
In short: as §1

[3] = target: T3, human TLR8 (Homo sapiens, UniProt Q9NR97); assay: TLR8 inhibition reporter assay (HEK-Blue SEAP); conditions: HEK-Blue cells overexpressing human TLR8, stimulated with R848 15.9 μM, 22 hour incubation
T3 construct: host or cells: HEK-Blue cells
T3 sequence (Q9NR97 27-1041): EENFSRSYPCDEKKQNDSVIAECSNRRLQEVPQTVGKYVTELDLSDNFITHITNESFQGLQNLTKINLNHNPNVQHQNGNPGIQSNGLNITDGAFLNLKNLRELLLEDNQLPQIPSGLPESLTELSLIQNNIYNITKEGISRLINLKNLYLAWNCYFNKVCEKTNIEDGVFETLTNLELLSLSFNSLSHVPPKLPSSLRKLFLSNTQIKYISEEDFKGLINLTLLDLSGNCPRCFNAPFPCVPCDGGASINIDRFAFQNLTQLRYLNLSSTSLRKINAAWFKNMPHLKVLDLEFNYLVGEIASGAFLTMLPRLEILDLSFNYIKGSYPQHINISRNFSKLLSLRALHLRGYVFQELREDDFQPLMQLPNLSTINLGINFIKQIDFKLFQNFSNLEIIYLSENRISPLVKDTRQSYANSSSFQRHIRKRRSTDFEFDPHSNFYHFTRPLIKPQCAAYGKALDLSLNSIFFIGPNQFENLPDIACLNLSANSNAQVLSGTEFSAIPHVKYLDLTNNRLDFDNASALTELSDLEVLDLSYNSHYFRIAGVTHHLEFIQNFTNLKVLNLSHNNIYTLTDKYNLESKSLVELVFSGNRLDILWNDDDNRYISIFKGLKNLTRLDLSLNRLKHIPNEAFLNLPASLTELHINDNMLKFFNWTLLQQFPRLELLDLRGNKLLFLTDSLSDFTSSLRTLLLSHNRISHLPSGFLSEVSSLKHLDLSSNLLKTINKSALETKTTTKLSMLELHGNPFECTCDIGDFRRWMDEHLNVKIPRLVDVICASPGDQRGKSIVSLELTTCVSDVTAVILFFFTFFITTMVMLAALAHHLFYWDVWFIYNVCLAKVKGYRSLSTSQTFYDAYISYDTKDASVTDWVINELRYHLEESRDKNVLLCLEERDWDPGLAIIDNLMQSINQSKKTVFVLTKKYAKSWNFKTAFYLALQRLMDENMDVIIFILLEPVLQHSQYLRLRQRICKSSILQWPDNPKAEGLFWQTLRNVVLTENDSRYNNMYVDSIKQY
In short: as §1

IC50 [1]	IC50 [2]	IC50 [3]	SMILES
16.9 nM	192 nM	31.2 nM	Cc1cc(-c2ccc3c(C4CCNCC4)c[nH]c3c2)cn2ncnc12 [Example 12, 8-methyl-6-(3-(piperidin-4-yl)-1H-indol-6-yl)-[1,2,4]triazolo[1,5-a]pyridine]
63.4 nM	404 nM	1.5 nM	Cc1cc(-c2cc3[nH]nc(C4CCCNC4)c3cc2C)cc(C)n1 (stereo not drawn) [Example 50, 6-(2,6-dimethylpyridin-4-yl)-5-methyl-3-(piperidin-3-yl)-1H-indazole]
1.4 nM	8360 nM	0.6 nM	Cc1cc(-c2cc3[nH]nc(C4CCC(N5CC(F)C5)CC4)c3cc2C(C)C)cn2ncnc12 (stereo not drawn) [Example 151, 6-(3-(4-(3-fluoroazetidin-1-yl)cyclohexyl)-5-isopropyl-1H-indazol-6-yl)-8-methyl-[1,2,4]triazolo[1,5-a]pyridine]
12.9 nM	1500 nM	3.3 nM	Cc1cc2c(C3CCNCC3)n[nH]c2cc1-c1cc(C)c2ncnn2c1 [Example 18, 8-methyl-6-(5-methyl-3-(piperidin-4-yl)-1H-indazol-6-yl)-[1,2,4]triazolo[1,5-a]pyridine]
6.3 nM	11600 nM	0.6 nM	CCc1cc2c(C3CCN(C(=O)CN(C)C)CC3)n[nH]c2cc1-c1cc(C)c2ncnn2c1 [Example 87, 2-(dimethylamino)-1-(4-(5-ethyl-6-(8-methyl-[1,2,4]triazolo[1,5-a]pyridin-6-yl)-1H-indazol-3-yl)piperidin-1-yl)ethan-1-one]
43.4 nM	6630 nM	2.9 nM	Cc1cc2c(C3CCN(CC(=O)N(C)C)CC3)n[nH]c2cc1-c1cc(C)c2ncnn2c1 [Example 23, N,N-dimethyl-2-(4-(5-methyl-6-(8-methyl-[1,2,4]triazolo[1,5-a]pyridin-6-yl)-1H-indazol-3-yl)piperidin-1-yl)acetamide]
4.1 nM	657 nM	3.9 nM	Cc1cc2c(C3CCNCC3)c[nH]c2cc1-c1cc(C)c2ncnn2c1 [Example 1, 8-methyl-6-(5-methyl-3-(piperidin-4-yl)-1H-indol-6-yl)-[1,2,4]triazolo[1,5-a]pyridine]
21.6 nM	4480 nM	1.3 nM	Cc1cc2c(C3CC(N(C)C)C3)n[nH]c2cc1-c1cc(C)c2ncnn2c1 (single isomer, unassigned) [Example 7, N,N-dimethyl-3-(5-methyl-6-(8-methyl-[1,2,4]triazolo[1,5-a]pyridin-6-yl)-1H-indazol-3-yl)cyclobutan-1-amine]

Further lines, the molecule ahead of its results:

SMILES	IC50 [1]	IC50 [2]	IC50 [3]
Cc1cc(-c2cc(C)c3ncnn3c2)cc2[nH]nc(C3CCN(C4CCOCC4)CC3)c12 [Example 78, 8-methyl-6-(4-methyl-3-(1-(tetrahydro-2H-pyran-4-yl)piperidin-4-yl)-1H-indazol-6-yl)-[1,2,4]triazolo[1,5-a]pyridine]	92.2 nM	24500 nM	252 nM
Cc1cc(-c2cc3[nH]nc(C4CCC(N5CC6(CCO6)C5)CC4)c3cc2C(C)C)cn2ncnc12 (stereo not drawn) [Example 155, 6-(4-(5-isopropyl-6-(8-methyl-[1,2,4]triazolo[1,5-a]pyridin-6-yl)-1H-indazol-3-yl)cyclohexyl)-1-oxa-6-azaspiro[3.3]heptane]	1.8 nM	7560 nM	0.2 nM
COc1cc(-c2ccc3c(C4CCNCC4)c[nH]c3c2)cn2ncnc12 [Example 11, 8-methoxy-6-(3-(piperidin-4-yl)-1H-indol-6-yl)-[1,2,4]triazolo[1,5-a]pyridine]	64.4 nM	363 nM	245 nM
CCc1cc2c(C3CCC(N(C)C)CC3)n[nH]c2cc1-c1cc(C)c2ncnn2c1 (single isomer, unassigned) [Example 94, 4-(5-ethyl-6-(8-methyl-[1,2,4]triazolo[1,5-a]pyridin-6-yl)-1H-indazol-3-yl)-N,N-dimethylcyclohexan-1-amine]	3 nM	10300 nM	0.5 nM
Cc1cc2c(C3CCC(NC4CC4)CC3)n[nH]c2cc1-c1cc(C)c2ncnn2c1 (stereo not drawn) [Example 36, N-cyclopropyl-4-(5-methyl-6-(8-methyl-[1,2,4]triazolo[1,5-a]pyridin-6-yl)-1H-indazol-3-yl) cyclohexan-1-amine]	7 nM	3340 nM	0.2 nM
Cc1cc(-c2cc3[nH]nc(C4CCC(N5CC(F)C5)CC4)c3cc2C(C)C)cn2ncnc12 (stereo not drawn) [Example 152, 6-(3-(4-(3-fluoroazetidin-1-yl)cyclohexyl)-5-isopropyl-1H-indazol-6-yl)-8-methyl-[1,2,4]triazolo[1,5-a]pyridine]	1.3 nM	13000 nM	0.3 nM
Cc1cc2c(C3CCNCC3)n[nH]c2cc1-c1cc(-c2cncnc2)c2ncnn2c1 [Example 85, 6-(5-methyl-3-(piperidin-4-yl)-1H-indazol-6-yl)-8-(pyrimidin-5-yl)-[1,2,4]triazolo[1,5-a]pyridine]	33 nM	3940 nM	1.5 nM
